Source: ChEMBL document CHEMBL4152347 (J Med Chem, 2018)
Converted amounts (≈) assume the structure as drawn.

Assays:
[1] = Dissociation constant, pKa of the compound; assay type: physicochemical
in vitro [2] = details: human, liver microsomes
Description: Half life in human liver microsomes at 0.5 uM after 1 hr in presence of NADPH by LC-MS/MS analysis

in vivo = details: Sprague-Dawley, rat, po, 5 mg/kg
in vitro [3] = details: rat, liver microsomes
Description: Half life in rat liver microsomes at 0.5 uM after 1 hr in presence of NADPH by LC-MS/MS analysis

[4] = system: Human immunodeficiency virus 1; test: microbe, parasite or virus in culture; details: Human immunodeficiency virus 1, MT2
in vitro [5] = details: human, MT2 cells
Description: Cytotoxicity against human MT2 cells assessed as reduction in cell viability

[6] = system: Human immunodeficiency virus 1; test: microbe, parasite or virus in culture; details: Human immunodeficiency virus 1, MT2; remark: listed apart in the source
Description: Antiviral activity against wild type HIV1 infected in human MT2 cells after 4 to 5 days by dual luciferase reporter gene assay

[7] = system: Human immunodeficiency virus 1; test: microbe, parasite or virus in culture; details: Human immunodeficiency virus 1, MT2; remark: listed apart in the source
Description: Antiviral activity against HIV1 expressing gag delta V370 mutant infected in human MT2 cells after 4 to 5 days by dual luciferase reporter gene assay

[8] = system: Human immunodeficiency virus 1; test: Ratio of EC50 for antiviral activity against wild type HIV1 infected in human MT2 cells after 4 to 5 days in presence of 10% FBS plus […] by dual luciferase reporter gene assay to EC50 for antiviral activity against wild type HIV1 infected in human MT2 cells after 4 to 5 days by dual luciferase reporter gene assay; assay type: functional
[9] = system: Human immunodeficiency virus 1; test: microbe, parasite or virus in culture; details: Human immunodeficiency virus 1, MT2; remark: listed apart in the source
Description: Antiviral activity against wild type HIV1 infected in human MT2 cells after 4 to 5 days in presence of 10% FBS and 40% human serum albumin by dual luciferase reporter gene assay

physchem = details: aqueous
Description: Aqueous solubility of the compound

[10] = Drug level in Sprague-Dawley rat plasma treated with [14C]4-[(1R,3aS,5aR,5bR,7aR,11aS,11bR,13aR,13bR)-3a-[2-(1,1-dioxo-1,4-thiazinan-4-yl)ethylamino]-1-isopropenyl-5a,5b,8,8,11a-pentamethyl-1,2,3,4,5,6,7,7a,11,11b,12,13,13a,13b-tetradecahydrocyclopenta[a]chrysen-9-yl]benzoic acid by LC-MS/MS analysis; assay type: ADME, cell-free
[11] = (§1) Drug level in beagle dog plasma treated with [14C]4-[(1R,3aS,5aR,5bR,7aR,11aS,11bR,13aR,13bR)-3a-[2-(1,1-dioxo-1,4-thiazinan-4-yl)ethylamino]-1-isopropenyl-5a,5b,8,8,11a-pentamethyl-1,2,3,4,5,6,7,7a,11,11b,12,13,13a,13b-tetradecahydrocyclopenta[a]chrysen-9-yl]benzoic acid at 5 mg/kg, po administered via gavage by LC-MS/MS analysis; assay type: ADME, organism-based, Canis lupus familiaris; details: in vivo
[12] = as §1, with “human” for “beagle dog”; assay type: ADME, organism-based; details: in vivo
[13] = as §1, with “cynomolgus monkey” for “beagle dog”; assay type: ADME, organism-based, Macaca fascicularis; details: in vivo
[14] = Solubility of compound in fed state simulated intestinal fluid at pH 5; assay type: physicochemical
[15] = Solubility of compound in fasted state simulated intestinal fluid at pH 6.5; assay type: physicochemical
[16] = (§2) Drug metabolism in Sprague-Dawley rat plasma assessed as 4-((1R,3aS,5aR,5bR,7aR,11aS,11bR,13aR,13bR)-3a-amino-5a,5b,8,8,11a-pentamethyl-1-(prop-1-en-2-yl)-2,3,3a,4,5,5a,5b,6,7,7a,8,11,11a,11b,12,13,13a,13b-octadecahydro-1H-cyclopenta[a]chrysen-9-yl)benzoic acid formation at 5 mg/kg, po administered via gavage by LC-MS/MS analysis; assay type: ADME, organism-based; details: in vivo
[17] = as §2, with “human” for “Sprague-Dawley rat”; assay type: ADME, organism-based; details: in vivo
[18] = (§3) Drug metabolism in Sprague-Dawley rat plasma assessed as (2S,3S,4S,5R,6S)-6-[4-[(1R,3aS,5aR,5bR,7aR,11aS,11bR,13aR,13bR)-3a-[2-(1,1-dioxo-1,4-thiazinan-4-yl)ethylamino]-1-isopropenyl-5a,5b,8,8,11a-pentamethyl-1,2,3,4,5,6,7,7a,11,11b,12,13,13a,13b-tetradecahydrocyclopenta[a]chrysen-9-yl]benzoyl]oxy-3,4,5-trihydroxy-tetrahydropyran-2-carboxylic acid formation at 5 mg/kg, po administered via gavage by LC-MS/MS analysis; assay type: ADME, organism-based; details: in vivo
[19] = as §3, with “beagle dog” for “Sprague-Dawley rat”; assay type: ADME, organism-based, Canis lupus familiaris; details: in vivo
[20] = Drug metabolism in human plasma assessed as mono-oxidation product formation at 5 mg/kg, po administered via gavage by LC-MS/MS analysis; assay type: ADME, organism-based; details: in vivo
[21] = Drug metabolism in Sprague-Dawley rat plasma assessed as mono-oxidation product formation at 5 mg/kg, po administered via gavage by LC-MS/MS analysis; assay type: ADME, organism-based; details: in vivo
[22] = as §3, with “human” for “Sprague-Dawley rat”; assay type: ADME, organism-based; details: in vivo
[23] = as §2, with “beagle dog” for “Sprague-Dawley rat”; assay type: ADME, organism-based, Canis lupus familiaris; details: in vivo
[24] = as §3, with “cynomolgus monkey” for “Sprague-Dawley rat”; assay type: ADME, organism-based, Macaca fascicularis; details: in vivo
[25] = Drug metabolism in beagle dog plasma assessed as mono-oxidation product formation at 5 mg/kg, po administered via gavage by LC-MS/MS analysis; assay type: ADME, organism-based, Canis lupus familiaris; details: in vivo
[26] = Drug metabolism in cynomolgus monkey plasma assessed as mono-oxidation product formation at 5 mg/kg, po administered via gavage by LC-MS/MS analysis; assay type: ADME, organism-based, Macaca fascicularis; details: in vivo
[27] = as §2, with “cynomolgus monkey” for “Sprague-Dawley rat”; assay type: ADME, organism-based, Macaca fascicularis; details: in vivo

Row | Compound | pKa [1] | half-life at 1 h, 0.5 µM (in vitro [2]) [min] | AUC(0-t) at 24 h (in vivo) [µM·h] | half-life at 1 h, 0.5 µM (in vitro [3]) [min] | EC50 [4] [nM] | CC50 (in vitro [5]) [µM] | EC50 [6] [nM] | EC50 [7] [nM] | EC50 [9] [nM] | also measured
1 | C=C(C)[C@@H]1CC[C@]2(CNCCCN3CCS(=O)(=O)CC3)CC[C@]3(C)[C@H](CC[C@@H]4[C@@]5(C)CC=C(c6ccc(C(=O)O)cc6)C(C)(C)[C@@H]5CC[C@]43C)[C@@H]12 | 5.4 | > 120 | 3.15 | > 120 | – | – | – | – | – | –
2 | C=C(C)[C@@H]1CC[C@]2(NCCN3CCC(F)(F)CC3)CC[C@]3(C)[C@H](CC[C@@H]4[C@@]5(C)CC=C(c6ccc(C(=O)O)cc6)C(C)(C)[C@@H]5CC[C@]43C)[C@@H]12 | 8.5 | > 120 | – | > 120 | 14.1 | > 10 | 5.1 | 67.5 | – | –
3 | C=C(C)[C@@H]1CC[C@]2(NCCN3CCCS(=O)(=O)CC3)CC[C@]3(C)[C@H](CC[C@@H]4[C@@]5(C)CC=C(c6ccc(C(=O)O)cc6)C(C)(C)[C@@H]5CC[C@]43C)[C@@H]12 | – | > 120 | – | > 120 | – | 4.9 | 3.6 | – | 35.1 | Ratio EC50 [8]: 9.7
4 | C=C(C)[C@@H]1CC[C@]2(NCCN3CCN(S(C)(=O)=O)CC3)CC[C@]3(C)[C@H](CC[C@@H]4[C@@]5(C)CC=C(c6ccc(C(=O)O)cc6)C(C)(C)[C@@H]5CC[C@]43C)[C@@H]12 | – | > 120 | 28.6 | > 120 | 5.2 | 10.7 | 3.3 | 27.2 | 26.1 | solubility (physchem): < 1 µg/mL
5 | C=C(C)[C@@H]1CC[C@]2(N)CC[C@]3(C)[C@H](CC[C@@H]4[C@@]5(C)CC=C(c6ccc(C(=O)O)cc6)C(C)(C)[C@@H]5CC[C@]43C)[C@@H]12 | – | – | – | – | – | – | – | – | – | Drug uptake [10]: Active; Drug uptake [11]: Active; Drug uptake [12]: Active; Drug uptake [13]: Active
6 | C=C(C)[C@@H]1CC[C@]2(NCCN3CCS(=O)(=O)CC3)CC[C@]3(C)[C@H](CC[C@@H]4[C@@]5(C)CC=C(c6ccc(C(=O)OC)cc6)C(C)(C)[C@@H]5CC[C@]43C)[C@@H]12 | – | – | – | – | – | – | – | – | – | Drug uptake [10]: Active; Drug uptake [11]: Active; Drug uptake [12]: Active; Drug uptake [13]: Active
7 | C=C(C)[C@@H]1CC[C@]2(NCCN3CCS(=O)(=O)CC3)CC[C@]3(C)[C@H](CC[C@@H]4[C@@]5(C)CC=C(c6ccc(C(=O)O)c(F)c6)C(C)(C)[C@@H]5CC[C@]43C)[C@@H]12 | – | > 120 | 24.3 | > 120 | 3.4 | 7.8 | 2.8 | 9.7 | 12.8 | solubility (physchem): < 1 µg/mL; solubility [14]: 330 µg/mL (≈ 465 µM); solubility [15]: 140 µg/mL (≈ 197 µM)
8 | C=C(C)[C@@H]1CC[C@]2(NCCN3CCS(=O)(=O)CC3)CC[C@]3(C)[C@H](CC[C@@H]4[C@@]5(C)CC=C(c6ccc([14C](=O)O)cc6)C(C)(C)[C@@H]5CC[C@]43C)[C@@H]12 | – | – | – | – | – | – | – | – | – | Drug metabolism [16]: Metabolite_Detected; Drug metabolism [17]: Metabolite_Detected; Drug metabolism [18]: Metabolite_Detected; Drug metabolism [19]: Metabolite_Detected; Drug metabolism [20]: Metabolite_Detected; Drug metabolism [21]: Metabolite_Detected; Drug metabolism [22]: Metabolite_Detected; Drug metabolism [23]: Metabolite_Detected; Drug metabolism [24]: Metabolite_Detected; Drug metabolism [25]: Metabolite_Detected; Drug metabolism [26]: Metabolite_Detected; Drug metabolism [27]: Metabolite_Detected
9 | C=C(C)[C@@H]1CC[C@]2(NCCN3CCOCC3)CC[C@]3(C)[C@H](CC[C@@H]4[C@@]5(C)CC=C(c6ccc(C(=O)O)cc6)C(C)(C)[C@@H]5CC[C@]43C)[C@@H]12 | 8.2 | > 120 | – | > 120 | 13.2 | > 10 | 8.3 | 47.4 | – | –
